Laboratory results published in the METLIN SMRT retention time set (Domingo-Almenara et al. 2019).

Assay: gradient 5% acetonitrile 3 min, to 50% in 2 min, to 85% in 15 min, held 3 min, 100 µL/min
Details: column: Zorbax Extend-C18 2.1 x 50 mm; eluents: water / acetonitrile, 0.1% formic acid
Summary of the method: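 Retention times come from adduct peaks that were picked computationally and then checked by hand. The standards, pure and pooled in mixtures of ~100 molecules, were run on a Zorbax Extend-C18 column (2.1 × 50 mm, 1.8 μm) at 100 μL/min with water and acetonitrile, each with 0.1% formic acid. Detection was by quadrupole time-of-flight mass spectrometry in positive and negative ionization mode, with a dead volume of 40 μL and a dwell volume of 900 μL.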

Row | RP-LC retention time [s] | Structure (SMILES)
1 | 1020 | Cc1ccc(-c2nnc(Cc3nc(-c4ccc5c(c4)OCO5)no3)o2)cc1F
2 | 865 | CCc1ccc(C2=C(C)C(N3CCCN(C(=O)NC4CCCC4)CC3)=NS2(=O)=O)cc1
3 | 1040 | COc1ccc(C)cc1NC(=O)C1CCCN(S(=O)(=O)c2cc(-c3noc(C)n3)cs2)C1 (stereo not drawn)
4 | 667 | Cc1cc(=O)n(CC(=O)N2CCc3ccccc32)c(N2CCOCC2)n1
5 | 688 | COc1ccc(OC)c(CNC(=O)C2CCN(c3cncnc3N3CCCCC3)CC2)c1
6 | 668 | O=C(c1ccoc1)N1CCCC(OCc2nc(-c3ccncc3)no2)C1 (stereo not drawn)
7 | 579 | CN1C(=O)CSc2ccc(NC(=O)N3CCN(c4ccccn4)CC3)cc21
8 | 998 | O=C(Nc1c(C(=O)NCCc2ccccc2)[nH]c2ccc(F)cc12)c1ccccc1
9 | 871 | Cn1nccc1-c1cccc(-c2noc(CNC(=O)Cc3ccc(Cl)cc3)n2)c1
10 | 759 | CCOC(=O)c1nc(N2CCCC(C)C2)c2ccccc2n1 (stereo not drawn)
11 | 874 | O=C(Nc1ccccc1F)C1COc2ccccc2C1 (stereo not drawn)
12 | 749 | CCCn1nc2n(c1=O)CCN(Cc1ccc(C)c(C)c1)C2
13 | 1020 | O=C(Nc1nc(-c2ccccc2)cs1)c1c(-c2ccc(F)cc2)nc2n1CCS2(=O)=O
14 | 879 | CCCCS(=O)(=O)N1CC=C(c2cn(C)c3ncccc23)CC1
15 | 863 | O=C(CSc1cn(CCNC(=O)c2ccccc2)c2ccccc12)Nc1ccccc1F
16 | 1050 | Clc1ccc(-c2noc(Cc3nnc(-c4ccccc4)o3)n2)cc1
17 | 838 | Cc1ccc(-c2nc3ncccn3c2Nc2ccc(C)cc2C)cc1
18 | 745 | COc1cccc(-c2ccc3nc(N4CCC(C(N)=O)CC4)sc3n2)c1
19 | 668 | CCC1CCCCN1C(=O)c1cnc2nc(C)ccc2c1Nc1ccc(OC)c(Cl)c1 (stereo not drawn)
20 | 847 | COC(=O)c1cc2n(n1)CC(C)(C(=O)NC1CCCCC1)N(c1ccc(F)cc1)C2=O (stereo not drawn)
21 | 806 | COCc1cc(=O)n(Cc2cccc(F)c2)c(N2CCCC2)n1
22 | 747 | Cn1cccc1C(=O)N1CCN(c2cc(-c3ccccc3)[nH]n2)CC1

Row | RP-LC retention time [s] | Structure (SMILES)
23 | 595 | CCCNC(=O)C1CCCN(c2ccc(SCC(=O)Nc3ccc(OCC)cc3)nn2)C1 (stereo not drawn)
24 | 992 | Cc1ccc(-c2csc(NC(=O)COc3cc(C)ccc3C(C)C)n2)cc1
25 | 836 | O=C(NCc1ccco1)c1cccc2c1CCN2C(=O)c1ccc(F)cc1
26 | 743 | COC(=O)c1ccc(CSc2nnc(NC(=O)c3snnc3C)s2)o1
27 | 797 | CCOc1ccccc1CNC(=O)CCc1nnc2c3cc(-c4ccc(OC)cc4)nn3ccn12
28 | 1020 | O=C1Nc2cc(C(=O)N3CCC(Cc4ccccc4)CC3)ccc2N2CCCCC12 (stereo not drawn)
29 | 634 | O=C(C1CCN(Cc2cc3ccccc3n2Cc2ccccc2)CC1)N1CCN(C2CCCCC2)CC1
30 | 776 | CN1c2ccc(F)cc2C(=O)NC12CCN(C(=O)c1ccc(F)c(F)c1)CC2
31 | 632 | O=C(Nc1ccc(Br)cc1F)C1CCN(C(=O)c2cc(-c3ccncc3)n[nH]2)CC1
32 | 574 | O=C(NCCOc1cccc2cccnc12)c1cccc(-n2cnnn2)c1
33 | 781 | CCCCNC(=O)CCCN1C(=O)CCn2nc(-c3cn(C)c4ccccc34)cc21
34 | 805 | COC(=O)c1nc(NC(=O)Cn2nc3c(cc2=O)CCCC3)sc1C(C)C
35 | 728 | CCOc1ccc(C(c2c(O)cc(C)n(CCOC)c2=O)N2CCN(c3ccccn3)CC2)cc1 (stereo not drawn)
36 | 597 | Cc1noc(C)c1CN1CCC(NC(=O)Cc2ccc(F)cc2)C1 (stereo not drawn)
37 | 764 | O=C(NCCc1cccs1)C1CCCN(c2ncnc3c2oc2ccccc23)C1 (stereo not drawn)
38 | 1020 | Cc1ccccc1-c1noc(C2CCCN2C(=O)NC2CCCCC2)n1 (stereo not drawn)
39 | 679 | CCN(CC)c1nc(C(=O)Nc2ccc(C(C)=O)cc2)nc2nc(C)cc(C)c12
40 | 766 | CC(=O)N1CCc2cc(N3CC(C(=O)Nc4ccccc4OC(F)(F)F)CC3=O)ccc21 (stereo not drawn)
41 | 778 | CC(=O)Nc1ccc2c(c1)CN(C(=O)c1ccc(C)cc1C)C(C(=O)N(C)C)C2 (stereo not drawn)
42 | 721 | Cc1nc(NC(=O)Cn2nc3c(cc2=O)CCCC3)sc1C
43 | 778 | CCCNC(=O)CSc1cc(NCc2ccc(Cl)cc2)ncn1
44 | 702 | O=C(NCc1cccnc1)C1CCN(S(=O)(=O)c2cc(-c3noc(C4CCC4)n3)cs2)CC1

Row | RP-LC retention time [s] | Structure (SMILES)
45 | 1020 | CSc1cccc(NC(=O)Cn2cccc(-c3nc(-c4ccc(Cl)cc4)no3)c2=O)c1
46 | 870 | Cc1cccc(-c2nc(CNC(=O)CCC(F)(F)F)no2)c1
47 | 630 | CCCOc1ccc(CN2C[C@@H]3C(=O)N(CCCN4CCCC4=O)C(=O)[C@@H]3C2)cc1
48 | 965 | COc1ccc(-n2c(=O)n(C)c(=O)c3cc(C(=O)Nc4ccc(C)c(F)c4)cnc32)cc1
49 | 674 | Cn1c(=O)c(N2CCN(S(=O)(=O)c3ccc(Cl)cc3)CC2)nc2ccncc21
50 | 561 | CN(C)CC(=O)N1CCC(Oc2nccnc2N2CCOCC2)C1 (stereo not drawn)
51 | 679 | O=C(NCc1ccc(Br)cc1)c1ccc2ncnc(N3CCCC3)c2c1
52 | 1060 | Cc1ccc(S(=O)(=O)N2CCC(n3cnc4c(C)cccc4c3=O)CC2)c(C)c1
53 | 1270 | CCOC(=O)c1cc([N+](=O)[O-])sc1NC(=O)c1nc2ccccc2s1
54 | 731 | CC(C)(C)NC(=O)c1ccc(-c2nnc3ccc(NC(=O)C4CC4)cn23)cc1
55 | 949 | Cn1cc(C2=CCN(S(=O)(=O)c3ccc(F)cc3)CC2)c2cccnc21
56 | 843 | Cc1cccc(NC(=O)C2CCN(S(=O)(=O)c3cc(C(=O)N4CCCC4)n(C)c3)CC2)c1C
57 | 866 | O=S(=O)(c1ccccc1)N1CCC(c2noc(C3CC3)n2)C1 (stereo not drawn)
58 | 826 | O=C(Cn1ccc2ccccc21)NCc1c(F)cccc1F
59 | 574 | Cc1oc(-c2[nH]ncc2C(=O)N2CCCC2)cc1S(=O)(=O)NCc1cccnc1
60 | 703 | CS(=O)(=O)N1CCC(OC2CCN(C(=O)Nc3ccccc3F)CC2)CC1
61 | 745 | COc1ccc(CCC(=O)NC(CC(C)C)C(=O)Nc2nc3ccccc3[nH]2)cc1 (stereo not drawn)
62 | 712 | COc1ccc(C)cc1NC(=O)CCC1CCN(c2cc(NC3CC3)ncn2)CC1
63 | 579 | CCc1cc2c(N3CCCC(C(=O)NCCCN4CCN(CC)CC4)C3)ncnc2s1 (stereo not drawn)
64 | 810 | COc1cc(Cl)ccc1C(=O)NCc1c(C)noc1C
65 | 573 | COc1cc([C@@H]2c3cc4c(cc3[C@H](O)[C@@H](CO)[C@@H]2C(=O)NCCCN(C)C2CCCCC2)OCO4)cc(OC)c1OC
66 | 597 | O=C(NCc1ccc(N2CCOCC2)cc1)c1cn2c(n1)COCC2

Row | RP-LC retention time [s] | Structure (SMILES)
67 | 875 | Cc1cc(C(=O)N2CCN(c3ccccc3Cl)CC2)nc2ccnn12
68 | 591 | Cc1cc(NCCCn2ccnc2)n2nc(C(F)(F)F)c(-c3ccccc3)c2n1
69 | 948 | COc1ccc(-c2nnc(SCc3ccc(C#N)cc3)o2)cc1
70 | 1410 | CCCN(C(=O)c1ccccc1F)c1nc(-c2ccc(C)cc2)cs1
71 | 987 | CCn1cc(-c2nc(C(=O)Nc3ccc(C)c(F)c3)cs2)c2cccnc21
72 | 735 | O=C1CCCc2cc(S(=O)(=O)N3CCC(C(=O)NCCc4ccccc4)CC3)ccc2N1
73 | 829 | Cn1c(=O)c(N2CCC(NC(=O)Nc3ccccc3)CC2)nc2ccccc21
74 | 744 | O=C(Cn1ccc2c(SCc3ccc(F)cc3)nccc21)NCc1ccc2c(c1)OCO2
75 | 552 | CCOC(=O)C(=O)NCC1CCC(c2nc3ccccc3n2C)CC1 (stereo not drawn)
76 | 894 | COC(=O)c1ccc(CSc2nnc(N3CCN(c4ccccc4OC)CC3)s2)o1
77 | 745 | Cc1oc(C2CCN(C(=O)c3ccsc3)CC2)nc1C(=O)N1CCCCC1
78 | 785 | Cc1nnc2c(NC(=O)Cc3cccc(C(F)(F)F)c3)cccn12
79 | 1100 | CN(Cc1ccccc1)c1ccc(-c2noc(CN3CCN(c4ccccc4)CC3)n2)cn1
80 | 967 | CCCn1c(=O)c(-c2ccc(C(=O)NCC(C)C)cc2)nc2cccnc21
81 | 1120 | CCOc1ccccc1CN1CCc2nc(N3CCN(CC)CC3)ncc2C1
82 | 736 | Cc1nc2ccn(Cc3cccs3)c(=O)c2cc1C(=O)NC1CCCC1
83 | 1270 | Cc1nc2cc(-c3noc(-c4ccc(F)c(Cl)c4)n3)ccc2o1
84 | 693 | COc1ccc(NC(=O)C2CCCN(c3cnc4nccnc4c3)C2)c(C)c1 (stereo not drawn)
85 | 1010 | Cc1ccc(-c2noc(C3CCCN3C(=O)c3ccc(CS(=O)(=O)c4ccccc4)cc3)n2)cc1 (stereo not drawn)

Row | Structure (SMILES) | RP-LC retention time [s]
86 | O=C(CN1CC=C(c2cnn(-c3ccccc3)c2)CC1)NCC1CCCO1 (stereo not drawn) | 612
87 | Cc1ccc(C(=O)N2[C@H]3CC[C@@H]2c2cnc(-c4ccccc4)nc2C3)cn1 | 689
88 | O=C(CN1CC=C(c2cnn(-c3ccc(F)cc3)c2)CC1)N1CCCCC1 | 661
